In patent publication US10494363B2, “Non-steroidal glucocorticoid receptor modulators for local drug delivery” (LEO PHARMA A/S, priority 2015, dated 2019):
pEC50, pIC50: −log10 of the molar value.

Tests used:
[1] = target: T1, glucocorticoid receptor (GR), recombinant full-length receptor protein (Homo sapiens, UniProt P04150); experiment: Glucocorticoid receptor binding assay (fluorescence polarization kit); details: 4 nM receptor, 2.5 nM Fluormone GS1 tracer, 2h room temperature, read-out: GR binding ABS IC50
T1 construct: 4 nM recombinant, full-length receptor protein was incubated with increasing concentrations of GR ligand; purchased Life Technologies A-15897
T1 sequence (P04150 1-777): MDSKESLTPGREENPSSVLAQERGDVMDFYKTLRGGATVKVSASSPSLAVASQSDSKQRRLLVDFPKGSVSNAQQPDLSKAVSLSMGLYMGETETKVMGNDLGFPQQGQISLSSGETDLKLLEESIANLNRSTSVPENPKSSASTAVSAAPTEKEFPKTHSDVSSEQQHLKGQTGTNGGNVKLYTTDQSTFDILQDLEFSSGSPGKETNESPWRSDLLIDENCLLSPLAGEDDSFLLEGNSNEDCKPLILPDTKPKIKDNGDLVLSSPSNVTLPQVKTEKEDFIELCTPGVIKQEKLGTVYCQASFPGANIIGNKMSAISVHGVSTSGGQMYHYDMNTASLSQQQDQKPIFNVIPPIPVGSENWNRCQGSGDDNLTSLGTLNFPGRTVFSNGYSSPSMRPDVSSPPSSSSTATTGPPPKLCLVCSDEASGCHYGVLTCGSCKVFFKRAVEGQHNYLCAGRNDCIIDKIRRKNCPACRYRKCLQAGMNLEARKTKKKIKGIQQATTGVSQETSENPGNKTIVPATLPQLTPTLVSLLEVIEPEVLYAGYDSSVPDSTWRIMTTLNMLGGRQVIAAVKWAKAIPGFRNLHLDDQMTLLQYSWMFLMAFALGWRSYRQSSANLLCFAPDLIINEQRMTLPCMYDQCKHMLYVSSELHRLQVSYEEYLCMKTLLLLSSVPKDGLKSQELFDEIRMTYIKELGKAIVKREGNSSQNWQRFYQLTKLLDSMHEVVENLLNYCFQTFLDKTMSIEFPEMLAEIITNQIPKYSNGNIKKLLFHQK
Method: Test compounds were diluted in DMSO over seven orders of magnitude, further diluted in assay buffer and distributed into 384-well plates. The sensitivity limit of this assay was 2-4 nM.
Data were processed by sigmoidal curve fitting.
Absolute (Abs) IC50 and Emax were determined from the curve fits.

[2] = system: TNF alpha release from human PBMCs; experiment: Inhibition of TNF alpha release from human PBMCs; format: cell-based; details: PBMC, LPS 1 μg/ml, 18 hours, AlphaLISA
Summary of the method: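 Fresh or thawed PBMCs in serum-free medium with 0.5% HSA, stimulated with 1 μg/ml LPS plus titrated compound for 18 h at 37° C. TNF-a in supernatant by AlphaLISA; window set with a reference PDE4 inhibitor at 100×IC50. EC50 and Emax from sigmoidal fits.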

[3] = Human liver microsomes (HLM) assay; format: in vitro ADME; details: hepatic extraction ratio; 0.5 μM compound, 0.5 mg/mL microsomes, NADPH, 37° C.
Summary of the method: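 Compound at 0.5 μM incubated at 37° C. with human liver microsomes (0.5 mg/mL) and NADPH (1 mM) in phosphate buffer pH 7.4, 1% organic solvent; sampled 0-30 minutes. Clapp (mL/min/kg) and Eh (%) derived from depletion rate constant.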

| Compound | pIC50 [1] | pEC50 [2] | HLM assay Eh (%) [3] |
| --- | --- | --- | --- |
| COCC(=O)N[C@@H](C)[C@H](Oc1ccc(C(=O)N[C@H]2CCCN(C(=O)[C@H]3COC(=O)C3)C2)nc1)c1ccc(C2CC2)cc1 [Compound 14, 5-[(1R,2S)-1-(4-cyclopropylphenyl)-2-[(2-methoxyacetyl)amino]propoxy]-N-[(3S)-1-[(3R)-5-oxotetrahydrofuran-3-carbonyl]-3-piperidyl]pyridine-2-carboxamide] | 6.52 to 7.00 | > 7.00 | * (extraction ratio (Eh)>90%) |
| C[C@H](NC(=O)c1ccns1)[C@H](Oc1ccc(C(=O)N[C@H]2CCCN(C(=O)[C@H]3COC(=O)C3)C2)nc1)c1ccc(C2CC2)cc1 [Compound 5, N-[(1S,2R)-2-(4-cyclopropylphenyl)-1-methyl-2-[[6-[[(3S)-1-[(3R)-5-oxotetrahydrofuran-3-carbonyl]-3-piperidyl]carbamoyl]-3-pyridyl]oxy]ethyl]isothiazole-5-carboxamide] | > 7.00 | > 7.00 | * (extraction ratio (Eh)>90%) |
| Cc1noc(C(=O)N[C@@H](C)[C@H](Oc2ccc(C(=O)O[C@H]3CCCN(C(=O)[C@H]4COC(=O)C4)C3)cc2)c2ccc(C3CC3)cc2)n1 [Compound 56, [(3S)-1-[(3R)-5-oxotetrahydrofuran-3-carbonyl]-3-piperidyl] 4-[(1R,2S)-1-(4-cyclopropylphenyl)-2-[(3-methyl-1,2,4-oxadiazole-5-carbonyl)amino]propoxy]benzoate] | > 7.00 | > 7.00 | * (extraction ratio (Eh)>90%) |
| C[C@H](NC(=O)c1cnco1)[C@H](Oc1ccc(C(=O)N[C@H]2CCCN(C(=O)[C@H]3COC(=O)C3)C2)nc1)c1ccc(C2CC2)cc1 [Compound 9, N-[(1S,2R)-2-(4-cyclopropylphenyl)-1-methyl-2-[[6-[[(3S)-1-[(3R)-5-oxotetrahydrofuran-3-carbonyl]-3-piperidyl]carbamoyl]-3-pyridyl]oxy]ethyl]oxazole-5-carboxamide] | 6.52 to 7.00 | > 7.00 | * (extraction ratio (Eh)>90%) |
